The term IC50 denotes the concentration that inhibits the measured activity by half. High values mean lower potency, low ones higher potency.

The values below come from patent US7232827B2, “Heteroaryl substituted 2-pyridinyl and 2-pyrimidinyl-6,7,8,9-tetrahydropyrimido[1,2-a]pyrimidin-4-one derivatives” (Sanofi-Aventis, priority 2002, dated 2007).

For the test, the target named is GSK3β (Homo sapiens, UniProt P49841). Briefly: Inhibitory activity against GSK3β (33P-ATP phosphorylation of prephosphorylated GS1 peptide). The test is classed as biochemical. The note with it: single compounds; first or second protocol not specified. The procedure:
Two different protocols can be used.
In a first protocol: 7.5 μM of prephosphorylated GS1 peptide and 10 μM ATP (containing 300,000 cpm of 33P-ATP) were incubated in 25 mM Tris-HCl, pH 7.5, 0.6 mM DTT, 6 mM MgCl2, 0.6 mM EGTA, 0.05 mg/ml BSA buffer for 1 hour at room temperature in the presence of GSK3β (total reaction volume: 100 microliters).
In a second protocol: 4.1 μM of prephosphorylated GS1 peptide and 42 μM ATP (containing 260,000 cpm 33P-ATP) were incubated in 80 mM Mes-NaOH, pH 6.5, 1 mM Mg acetate, 0.5 mM EGTA, 5 mM 2-mercaptoethanol, 0.02% Tween 20, 10% glycerol buffer for 2 hours at room temperature in the presence of GSK3β.
Inhibitors were solubilised in DMSO (final solvent concentration in the reaction medium, 1%).
The reaction was stopped with 100 microliters of a solution made of 25 g polyphosphoric acid (85% P2O5), 126 ml 85% H3PO4, H2O to 500 ml and then diluted to 1:100 before use. An aliquot of the reaction mixture was then transferred to Whatman P81 cation exchange filters and rinsed with the solution described above. Incorporated 33P radioactivity was determined by liquid scintillation spectrometry.
The phosphorylated GS-1 peptide had the following sequence: NH2-[…](P)EDEE-COOH.

Chain of GSK3β (P49841 whole entry, species assumed): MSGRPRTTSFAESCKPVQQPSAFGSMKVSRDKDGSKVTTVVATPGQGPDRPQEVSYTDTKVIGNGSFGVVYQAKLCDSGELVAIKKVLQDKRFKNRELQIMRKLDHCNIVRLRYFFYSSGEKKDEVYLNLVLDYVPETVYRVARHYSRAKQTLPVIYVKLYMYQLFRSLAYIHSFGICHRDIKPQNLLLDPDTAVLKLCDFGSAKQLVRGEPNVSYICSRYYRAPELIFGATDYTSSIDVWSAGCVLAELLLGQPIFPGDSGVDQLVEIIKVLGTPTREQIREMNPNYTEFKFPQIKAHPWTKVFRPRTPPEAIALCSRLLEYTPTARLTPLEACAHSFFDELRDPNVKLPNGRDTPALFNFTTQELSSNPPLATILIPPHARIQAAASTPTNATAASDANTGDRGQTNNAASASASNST

`CC1CCn2c(nc(-c3ccncn3)cc2=O)N1CC1COc2ccccc2O1` (centres unmarked) [compound 8 of table 2B, 9-(2,3-Dihydro-benzo[1,4]dioxin-2-ylmethyl)-8-methyl-2-pyrimidin-4-yl-6,7,8,9-tetrahydro-pyrimido[1,2-a]pyrimidin-4-one]: half-maximal inhibition (IC50) required 15 nM. Next, `Cc1ccc2c(n1)CC(CN1CC(C)(C)Cn3c1nc(-c1ccncc1)cc3=O)C2` (racemic) [compound 4 of table 1A, (+/−)-7,7-Dimethyl-9-(2-methyl-6,7-dihydro-5H-[1]pyrindin-6-ylmethyl) -2-(pyridin-4-yl)-6,7,8,9-tetrahydro-pyrimido[1,2-a]pyrimidin-4-one]: 8 nM.
